According to patent publication US7879870B2, “Treatment of inflammatory and ulcerative diseases of the bowel with opioid antagonists” (priority 2006, dated 2011):
“Also recorded” adds a separate entry of the source. Counter-ions that a name gives are not always drawn.

How the values were obtained:
[1] = tested on: patients with active Crohn's disease; assay: Open-labeled pilot trial of LDN in active Crohn's disease: CDAI score, response, remission, fistulas; type: in vivo, human
Excerpt: In the following detailed example, low dose naltrexone, an opioid antagonist, is shown to be a safe and effective treatment for Crohn's disease. In a human clinical experiment, eligible patients were both male and female, at least eighteen years of age, and with the confirmed diagnosis of Crohn's disease by either endocopic or radiographic procedures. Patients had moderate to severely active disease as defined by a Crohn's Disease Activity Index (CDAI score) of >220 and <450. See, Best, et al., “Development of a Crohn's disease activity index. National Cooperative Crohn's Disease Study,” Gastroenterology 70, 439-44 (1976). Patients taking stable doses of aminosalicylates, immunomodulators, corticosteroids, or antibiotics were permitted to enter the study, and they were continued at the same dosage throughout the trial. Women of childbearing age were permitted to enroll and, if not surgically sterile, were required to use adequate contraception (defined as oral or depot contraceptive, IUD, or barrier plus spermicide) for the duration of the study. These women were required to continue adequate contraception for three months after the completion of the study. Exclusion criteria included women who were pregnant or breastfeeding, subjects with an ileostomy, colostomy, ileorectal anastomosis, or short bowel syndrome from surgery, and patients with abnormal liver function tests. Subjects taking tacrolimus, cyclosporine, mycophenolate, or infliximab within eight weeks of enrollment were excluded.
(§1) Eligibility was assessed by telephone, and potential candidates were scheduled for a screening visit. At the screening visit, patients were subjected to a history and physical examination and laboratory testing (chemistry panel, complete blood count [“CBC”], urinalysis, and erythrocyte sedimentation rate [“ESR”]). Patients were dispensed a seven-day diary to record symptoms of frequency of diarrhea, abdominal pain, and general well-being. Within fourteen days, patients returned for assessment and calculation of the CDAI score. Qualifying subjects were dispensed medication and given a new diary in order to calculate the subsequent month's CDAI score at the conclusion of this visit (baseline). Patients returned after two weeks for an interim visit to evaluate side effects and perform a CBC. Follow-up visits were scheduled for weeks 4, 8, 12, and 16.
Quality assurance of packaging and purity were confirmed an analytical research laboratory. Patients were treated with LDN orally each evening for three months. A monthly supply of medication was dispensed to patients. On the first visit, an additional ten-day supply of LDN was provided in the event of an appointment delay. Subjects were required to bring the vials to each appointment for counting and drug accountability; extra capsules were returned on the day of the visit and another month's supply dispensed. […]
(§2) An intent-to-treat analysis was performed in which the available data from all evaluable patients were included in the statistical analysis. The parameters of measurement (CDAI scores, laboratory values, and quality of life surveys) were analyzed by a biostatistician comparing baseline values to those obtained monthly and four weeks post-therapy. A longitudinal data analysis based upon the linear mixed-effects model was applied using PROC MIXED program (available from SAS Institute Inc., Cary, N.C.). The Bonferroni statistical method was used to adjust significance where analysis including multiple comparisons to the baseline were made. P-values for binary outcomes response and remission were calculated using the exact test for binomial proportions.

[2] = tested on: patients with active Crohn's disease; assay: Open-labeled pilot trial of LDN: quality of life surveys (IBDQ, SF-36 Health Survey); type: in vivo, human
Experimental: as §1
Quality assurance of packaging and purity were confirmed an analytical research laboratory. Patients were treated with LDN orally each evening for three months. A monthly supply of medication was dispensed to patients. On the first visit, an additional ten-day supply of LDN was provided in the event of an appointment delay. Subjects were required to bring the vials to each appointment for counting and drug accountability; extra capsules were returned on the day of the visit and another month's supply dispensed.
To assess quality of life, patients completed two standardized quality of life surveys, the Inflammatory Bowel Disease Questionnaire (“IBDQ”) and SF-36 Health Survey. See, Irvine, et al., “Quality of life: a valid and reliable measure of therapeutic efficacy in the treatment of inflammatory bowel disease. Canadian Crohn's Relapse Prevention Trial Study Group,” Gastroenterology 106(2), 287-96 (1994); Brazier, et al., “Validating the SF-36 health survey questionnaire: new outcome measure for primary care,” BMJ305(6846), 160-04 (1992).
as §2

[3] = tested on: patients with active Crohn's disease; assay: Open-labeled pilot trial of LDN: safety and toxicity (adverse events, body weight); type: in vivo, human
Experimental: as §1
Nonhematologic and hematologic toxicity were determined by the WHO criteria. See, Oken, et al., “Toxicity and response criteria of the Eastern Cooperative Oncology Group,” Am. J. Clin. Oncol. 5(6), 649-55 (1982).

[4] = tested on: human subjects; assay: Double-blinded placebo-controlled Phase II clinical trial, adverse events; type: in vivo; conditions: as of the date of application
[5] = one month (week 4) of LDN 4.5 mg/day
[6] = week 16, four weeks after discontinuation of LDN

Structure (SMILES): O=C1CC[C@@]2(O)[C@H]3Cc4ccc(O)c5c4[C@@]2(CCN3CC2CC2)[C@H]1O5 [LDN, Naltrexone hydrochloride]
- Fistulas in the two subjects with fistulas ([1]; LDN therapy, not previously responded to infliximab, hydrochloride): closure of the fistulas
- Enrolled patients who achieved remission (fraction in words) ([1]; at some point during LDN treatment): Two-thirds
- Patients who achieved a remission ([1]; at some point during the 16-week trial): 67%
- CDAI scores versus baseline (in words) ([1]; four weeks after completing therapy, hydrochloride): remained lower than baseline; also recorded: continued improvement in CDAI scores
- CDAI scores with LDN versus baseline (in words) ([1]; on therapy, 4.5 mg/day, baseline mean CDAI 356±27): decreased significantly
- Patients in remission (CDAI score of 150 points or less) [1, 5]: 29%
- Patients with response to therapy (decrease in CDAI score by 70 points) [1, 5]: 76%
- Mean CDAI score, decrease from baseline ([1]; week 4 of LDN 4.5 mg/day by mouth each evening, 17 patients): 41%
- Patients in remission (CDAI score of 150 points or less) ([1]; week 8 of LDN): 53%
- Patients with response to therapy (decrease in CDAI score by 70 points) ([1]; week 8 of LDN): 88%
- Mean CDAI score, decrease from baseline ([1]; week 8 of LDN 4.5 mg/day): 55%
- Patients in remission (CDAI score of 150 points or less) ([1]; week 12 of LDN): 47%
- Patients with response to therapy (decrease in CDAI score by 70 points) ([1]; week 12 of LDN): 88%
- Mean CDAI score, decrease from baseline ([1]; week 12 of LDN 4.5 mg/day): 49%
- Mean CDAI score, less than baseline [1, 6]: 45%
- Patients in remission (CDAI score of 150 points or less) [1, 6]: 33%
- Patients with response to therapy (decrease in CDAI score by 70 points) [1, 6]: 73%
- SF-36 physical function, greater than baseline ([2]; 4 and 8 weeks of LDN): 23%
- Quality of life by both surveys (IBDQ and SF-36) compared to baseline ([2]; on LDN therapy): significant improvement; also recorded: improved the quality of life
- SF-36 health perception, greater than baseline ([2]; week 8 of LDN): 33%
- SF-36 health perception, greater than baseline ([2]; week 12 of LDN): 49%
- SF-36 social function, greater than baseline ([2]; weeks 4, 8 and 12, only statistically different at week 8): 70%
- SF-36 bodily pain, improvement ([2]; weeks 4, 8 and 12 of LDN): 61-65%
- SF-36 emotional health versus baseline ([2]; weeks 4, 8 and 12 of LDN): comparable to baseline values
- SF-36 physical role scores, improvement ([2]; weeks 4, 8 and 12 of LDN): 5- to 8 fold
- SF-36 role-emotional versus baseline ([2]; weeks 4, 8 and 12 of LDN): comparable to baseline values
- IBDQ survey, quality of life compared to baseline ([2]; weeks 4, 8 and 12 on LDN and one month after completion): significant improvement in quality of life
- SF-36 energy scores, greater than at initiation of therapy ([2]; weeks 8 and 12 of LDN): at least 2 fold
- Sleep disturbances, number of patients ([3]; 17 patients enrolled): 7 patients
- Subjects who changed timing of LDN from evening to morning due to insomnia ([3]; 17 patients enrolled): Five
- Unusual dreams, number of patients reporting ([3]; 17 patients enrolled): one
- Dose reduction for sleep disturbances ([3]; in vivo): In no instance was a dose reduction necessary
- Safety profile ([3]; pilot study, 4.5 mg daily): infrequent and minor side effects and no known suppression of immunity or increased risk of secondary infections
- Body weight ([3]; screening visit through week 16): no significant change in body weight
- Serious adverse events [4]: has not revealed any serious adverse events
